Measured values published in patent US20220411471A1, “CELL-PERMEABLE CYCLIC PEPTIDES AND USES THEREOF” (Unnatural Products Inc., priority 2019, published 2022).
Where two headings read alike, the source gives them in different places. Non-standard residues stand in square brackets, D forms with d. Residues, ends and D or L forms follow the SMILES beside them. NEtPhe(4-F) = CCN[C@@H](Cc1ccc(F)cc1)C(=O)O; Ala(4-thiazolyl) = N[C@@H](Cc1cscn1)C(=O)O; NMePhe(4-F) = CN[C@@H](Cc1ccc(F)cc1)C(=O)O; Phe(4-Cl) = N[C@@H](Cc1ccc(Cl)cc1)C(=O)O; Phe(4-F) = N[C@@H](Cc1ccc(F)cc1)C(=O)O; NMeF = CN[C@@H](Cc1ccccc1)C(=O)O; Tle = CC(C)(C)[C@H](N)C(=O)O; NMeV = CN[C@H](C(=O)O)C(C)C; hSer = N[C@@H](CCO)C(=O)O; NMeA = CN[C@@H](C)C(=O)O; dNMeA = CN[C@H](C)C(=O)O; Abu = CC[C@H](N)C(=O)O; Nme = COCCNCC(=O)O; Sar = CNCC(=O)O

Tests used:
Human MDM2 (HDM2) 1-116 = biological target: T1, Human MDM2 (HDM2) 1-116 (Homo sapiens, UniProt Q00987); assay: Fluorescence polarization assay 2, MDM2 (Table 4); format: binding
T1 construct: Human MDM2 (HDM2) 1-116
Experimental: (§1) Compounds dissolved in DMSO were pin transferred (˜100-200 nL) to the 384 well plate containing the MDM2/p53 solution. After incubation for 60 minutes, the fluorescence polarization was read on a Molecular Devices SpectraMax plate reader equipped with a Fluorescein FP cartridge. In addition to probe alone (positive control) and probe/MDM2 (negative control), a titration of linear p53(18-26) was included on every plate as an additional control. IC50 values were fit using either Prism or Collaborative Drug Discovery.

Human MDM4 (HDM4) 1-114 = biological target: T2, Human MDM4 (HDM4) 1-114 (Homo sapiens, UniProt O15151); assay: Fluorescence polarization assay 2, MDM4 (Table 4); format: binding
T2 construct: Human MDM4 (HDM4) 1-114
T2 sequence (O15151 1-114): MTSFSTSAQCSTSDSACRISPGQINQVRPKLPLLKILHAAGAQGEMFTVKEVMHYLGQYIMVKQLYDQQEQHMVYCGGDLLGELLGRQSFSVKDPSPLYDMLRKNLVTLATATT
Experimental: as §1, with “MDM4/p53” for “MDM2/p53”, “probe/MDM4” for “probe/MDM2”

[1] = Table 4, fluorescence polarization, read-out: MDM2 IC50
[2] = Table 4, fluorescence polarization, read-out: MDM4 IC50

T1 sequence (Q00987 1-116): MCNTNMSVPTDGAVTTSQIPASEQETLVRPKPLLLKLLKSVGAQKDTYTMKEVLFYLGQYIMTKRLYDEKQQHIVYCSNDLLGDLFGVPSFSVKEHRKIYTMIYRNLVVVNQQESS

Structure (SMILES) | IC50 (Human MDM2 (HDM2) 1-116; [1]) [nM] | IC50 (Human MDM4 (HDM4) 1-114; [2]) [nM] | IC50 (Human MDM2 (HDM2) 1-116) [nM] | IC50 (Human MDM4 (HDM4) 1-114) [nM]
COCC[C@@H]1NC(=O)[C@H]2CCCN2C(=O)[C@H](Cc2ccccc2)N(C)C(=O)[C@H](Cc2ccc(Cl)cc2)NC(=O)[C@H](C(C)(C)C)NC(=O)[C@H](Cc2ccc(F)cc2)NC(=O)CN(CCOC)C(=O)[C@@H](C)N(C)C(=O)[C@H](Cc2ccc(O)cc2)NC(=O)[C@H](C)N(C)C1=O [Compound 32, [H]Oc1ccc(C[C@@H]2NC(=O)[C@H](C)N(C)C(=O)[C@H](CCOC)NC(=O)[C@H]3CCCN3C(=O)[C@H](Cc3ccccc3)N(C)C(=O)[C@H](Cc3ccc(Cl)cc3)NC(=O)[C@@H](NC(=O)[C@H](Cc3ccc(F)cc3)NC(=O)CN(CCOC)C(=O)[C@@H](C)N(C)C2=O)C(C)(C)C)cc1] (cyclo([NMeA]Y[dNMeA][Nme][Phe(4-F)][Tle][Phe(4-Cl)][NMeF][dP][hSer](Me))) | < 25 | > 150 | – | –
COCC[C@@H]1NC(=O)[C@H]2CCCN2C(=O)[C@H](Cc2ccccc2)N(C)C(=O)[C@H](Cc2ccc(Cl)cc2)NC(=O)CN(C)C(=O)[C@H](Cc2ccc(F)cc2)NC(=O)[C@H](C)N(C)C(=O)[C@@H](C)N(C)C(=O)[C@H](Cc2cscn2)NC(=O)[C@H](C)N(C)C1=O [Compound 33, COCC[C@@H]1NC(=O)[C@H]2CCCN2C(=O)[C@H](CC2=CC=CC=C2)N(C)C(=O)[C@H](CC2=CC=C(Cl)C=C2)NC(=O)CN(C)C(=O)[C@H](CC2=CC=C(F)C=C2)NC(=O)[C@H](C)N(C)C(=O)[C@@H](C)N(C)C(=O)[C@H](CC2=CSC=N2)NC(=O)[C@H](C)N(C)C1=O] (cyclo([Ala(4-thiazolyl)][dNMeA][NMeA][Phe(4-F)][Sar][Phe(4-Cl)][NMeF][dP][hSer](Me)[NMeA])) | – | – | < 25 | 50 to 100
COCC[C@@H]1NC(=O)[C@H]2CCCN2C(=O)[C@H](Cc2ccccc2)N(C)C(=O)[C@H](Cc2ccc(Cl)cc2)NC(=O)[C@H](C)N(C)C(=O)[C@H](Cc2ccc(F)cc2)NC(=O)[C@H](C)N(C)C(=O)[C@@H](C)N(C)C(=O)[C@H](Cc2cscn2)NC(=O)[C@H](C)N(C)C1=O [Compound 34, COCC[C@@H]1NC(=O)[C@H]2CCCN2C(=O)[C@H](CC2=CC=CC=C2)N(C)C(=O)[C@H](CC2=CC=C(Cl)C=C2)NC(=O)[C@H](C)N(C)C(=O)[C@H](CC2=CC=C(F)C=C2)NC(=O)[C@H](C)N(C)C(=O)[C@@H](C)N(C)C(=O)C@H](CC2=CSC=N2)NC(=O)[C@H](C)N(C)C1=O] (cyclo([Ala(4-thiazolyl)][dNMeA][NMeA][Phe(4-F)][NMeA][Phe(4-Cl)][NMeF][dP][hSer](Me)[NMeA])) | 25 to 50 | > 150 | – | –
COCC[C@@H]1NC(=O)[C@H]2CCCN2C(=O)[C@H](Cc2ccccc2)N(C)C(=O)[C@H](Cc2ccc(Cl)cc2)NC(=O)[C@H](C(C)(C)C)NC(=O)[C@H](Cc2ccc(F)cc2)NC(=O)[C@H](C)N(C)C(=O)[C@@H](C)N(C)C(=O)[C@H](Cc2cscn2)NC(=O)[C@H](C)N(C)C1=O [Compound 36, COCC[C@@H]1NC(=O)[C@H]2CCCN2C(=O)[C@H](Cc2ccccc2)N(C)C(=O)[C@H](Cc2ccc(Cl)cc2)NC(=O)[C@@H](NC(=O)[C@H](Cc2ccc(F)cc2)NC(=O)[C@H](C)N(C)C(=O)[C@@H](C)N(C)C(=O)[C@H](CC2=CSC=N2)NC(=O)[C@H](C)N(C)C1=O)C(C)(C)C] (cyclo([Ala(4-thiazolyl)][dNMeA][NMeA][Phe(4-F)][Tle][Phe(4-Cl)][NMeF][dP][hSer](Me)[NMeA])) | < 25 | 50 to 100 | – | –
COCC[C@@H]1NC(=O)[C@H]2CCCN2C(=O)[C@H](Cc2ccc(F)cc2)N(C)C(=O)[C@H](Cc2ccc(Cl)cc2)NC(=O)[C@H](C(C)(C)C)NC(=O)[C@H](Cc2ccc(F)cc2)NC(=O)CN(CCOC)C(=O)[C@@H](C)N(C)C(=O)[C@H](Cc2cscn2)NC(=O)[C@H](C)N(C)C1=O [Compound 37, COCC[C@@H]1NC(=O)[C@H]2CCCN2C(=O)[C@H](Cc2ccc(F)cc2)N(C)C(=O)[C@H](CC2=CC=C(Cl)C=C2)NC(=O)[C@@H](NC(=O)[C@H](Cc2ccc(F)cc2)NC(=O)CN(CCOC)C(=O)[C@@H](C)N(C)C(=O)[C@H](CC2=CSC=N2)NC(=O)[C@H](C)N(C)C1=O)C(C)(C)C] (cyclo([Ala(4-thiazolyl)][dNMeA][Nme][Phe(4-F)][Tle][Phe(4-Cl)][NMePhe(4-F)][dP][hSer](Me)[NMeA])) | 25 to 50 | 50 to 100 | – | –
COCC[C@@H]1NC(=O)[C@H]2CCCN2C(=O)[C@H](Cc2ccc(F)cc2)N(C)C(=O)[C@H](Cc2ccc(Cl)cc2)NC(=O)[C@H](C(C)(C)C)NC(=O)[C@H](Cc2ccc(F)cc2)NC(=O)[C@H](C)N(C)C(=O)[C@@H](C)N(C)C(=O)[C@H](Cc2cscn2)NC(=O)[C@H](C)N(C)C1=O [Compound 38, COCC[C@@H]1NC(=O)[C@H]2CCCN2C(=O)[C@H](Cc2ccc(F)cc2)N(C)C(=O)[C@H](CC2=CC=C(Cl)C=C2)NC(=O)[C@@H](NC(=O)[C@H](Cc2ccc(F)cc2)NC(=O)[C@H](C)N(C)C(=O)[C@@H](C)N(C)C(=O)[C@H](CC2=CSC=N2)NC(=O)[C@H](C)N(C)C1=O)C(C)(C)C] (cyclo([Ala(4-thiazolyl)][dNMeA][NMeA][Phe(4-F)][Tle][Phe(4-Cl)][NMePhe(4-F)][dP][hSer](Me)[NMeA])) | 25 to 50 | 50 to 100 | – | –
COCC[C@@H]1NC(=O)[C@H]2CCCN2C(=O)[C@H](Cc2ccccc2)N(C)C(=O)[C@H](Cc2ccc(Cl)cc2)NC(=O)[C@H](C)N(C)C(=O)[C@H](Cc2ccc(F)cc2)NC(=O)CN(CCOC)C(=O)[C@@H](C)N(C)C(=O)[C@H](Cc2cscn2)NC(=O)[C@H](C)N(C)C1=O [Compound 40, COCC[C@@H]1NC(=O)[C@H]2CCCN2C(=O)[C@H](CC2=CC=CC=C2)N(C)C(=O)[C@H](CC2=CC=C(Cl)C=C2)NC(=O)[C@H](C)N(C)C(=O)[C@H](CC2=CC=C(F)C=C2)NC(=O)CN(CCOC)C(=O)[C@@H](C)N(C)C(=O)[C@H](CC2=CSC=N2)NC(=O)[C@H](C)N(C)C1=O] (cyclo([Ala(4-thiazolyl)][dNMeA][Nme][Phe(4-F)][NMeA][Phe(4-Cl)][NMeF][dP][hSer](Me)[NMeA])) | 25 to 50 | > 150 | – | –
COCC[C@@H]1NC(=O)[C@H]2CCCN2C(=O)[C@H](Cc2ccccc2)N(C)C(=O)[C@H](Cc2ccc(Cl)cc2)NC(=O)[C@H](C(C)C)NC(=O)[C@H](Cc2ccc(F)cc2)NC(=O)CN(CCOC)C(=O)[C@@H](C)N(C)C(=O)[C@H](Cc2cscn2)NC(=O)[C@H](C)N(C)C1=O [Compound 41, COCC[C@@H]1NC(=O)[C@H]2CCCN2C(=O)[C@H](CC2=CC=CC=C2)N(C)C(=O)[C@H](CC2=CC=C(Cl)C=C2)NC(=O)[C@@H](NC(=O)[C@H](CC2=CC=C(F)C=C2)NC(=O)CN(CCOC)C(=O)[C@@H](C)N(C)C(=O)[C@H](CC2=CSC=N2)NC(=O)[C@H](C)N(C)C1=O)C(C)C] (cyclo([Ala(4-thiazolyl)][dNMeA][Nme][Phe(4-F)]V[Phe(4-Cl)][NMeF][dP][hSer](Me)[NMeA])) | < 25 | < 50 | – | –
CC[C@@H]1NC(=O)[C@H](Cc2ccc(F)cc2)NC(=O)CN(CCOC)C(=O)[C@@H](C)N(C)C(=O)[C@H](Cc2cscn2)NC(=O)[C@H](C)N(C)C(=O)[C@H](CCOC)NC(=O)[C@H]2CCCN2C(=O)[C@H](Cc2ccccc2)N(C)C(=O)[C@H](Cc2ccc(Cl)cc2)NC1=O [Compound 42, CC[C@@H]1NC(=O)[C@H](CC2=CC=C(F)C=C2)NC(=O)CN(CCOC)C(=O)[C@@H](C)N(C)C(=O)[C@H](CC2=CSC=N2)NC(=O)[C@H](C)N(C)C(=O)[C@H](CCOC)NC(=O)[C@H]2CCCN2C(=O)[C@H](CC2=CC=CC=C2)N(C)C(=O)[C@H](CC2=CC=C(Cl)C=C2)NC1=O] (cyclo([Abu][Phe(4-Cl)][NMeF][dP][hSer](Me)[NMeA][Ala(4-thiazolyl)][dNMeA][Nme][Phe(4-F)])) | 25 to 50 | 100 to 150 | – | –
COCC[C@@H]1NC(=O)[C@H]2CCCN2C(=O)[C@H](Cc2ccccc2)N(C)C(=O)[C@H](Cc2ccc(Cl)cc2)NC(=O)[C@H](C(C)C)N(C)C(=O)[C@H](Cc2ccc(F)cc2)NC(=O)CN(CCOC)C(=O)[C@@H](C)N(C)C(=O)[C@H](Cc2cscn2)NC(=O)[C@H](C)N(C)C1=O [Compound 43, COCC[C@@H]1NC(=O)[C@H]2CCCN2C(=O)[C@H](CC2=CC=CC=C2)N(C)C(=O)[C@H](CC2=CC=C(Cl)C=C2)NC(=O)[C@H](C(C)C)N(C)C(=O)[C@H](CC2=CC=C(F)C=C2)NC(=O)CN(CCOC)C(=O)[C@@H](C)N(C)C(=O)[C@H](CC2=CSC=N2)NC(=O)[C@H](C)N(C)C1=O] (cyclo([Ala(4-thiazolyl)][dNMeA][Nme][Phe(4-F)][NMeV][Phe(4-Cl)][NMeF][dP][hSer](Me)[NMeA])) | 25 to 50 | 100 to 150 | – | –
CCN1C(=O)[C@H](Cc2ccc(Cl)cc2)NC(=O)[C@H](C(C)(C)C)NC(=O)[C@H](Cc2ccc(F)cc2)NC(=O)CN(CCOC)C(=O)[C@@H](C)N(C)C(=O)[C@H](Cc2cscn2)NC(=O)[C@H](C)N(C)C(=O)[C@H](CCOC)NC(=O)[C@H]2CCCN2C(=O)[C@@H]1Cc1ccc(F)cc1 [Compound 44, CCN1[C@@H](Cc2ccc(F)cc2)C(=O)N2CCC[C@@H]2C(=O)N[C@@H](CCOC)C(=O)N(C)[C@@H](C)C(=O)N[C@@H](Cc2cscn2)C(=O)N(C)[C@H](C)C(=O)N(CCOC)CC(=O)N[C@@H](Cc2ccc(F)cc2)C(=O)N[C@H](C(=O)N[C@@H](Cc2ccc(Cl)cc2)C1=O)C(C)(C)C] (cyclo([Ala(4-thiazolyl)][dNMeA][Nme][Phe(4-F)][Tle][Phe(4-Cl)][NEtPhe(4-F)][dP][hSer](Me)[NMeA])) | 50 to 100 | > 150 | – | –
